Source: PMC7961521 (2021)

How the values were obtained:
[1] = test system: 3G (DNA, G4) TTAGGGTTAGGGTTAGGGTTACCTAGGCATCCTCCAGTTCCTGGAGTCAGTG; test: fluorescence, reporter dye in displacement assay; details: 100 mM KCl; 10 mM Tris-HCl pH 7.2; dye 1 µM, DNA 0.5 µM
[2] = test system: 4G (DNA, G4) AGGGTTAGGGTTAGGGTTAGGGTTACCTAGGCATCCTCCAGTTCCTGGAGTCAGTG; test: fluorescence, reporter dye in displacement assay; details: 100 mM KCl; 10 mM Tris-HCl pH 7.2; dye 1 µM, DNA 0.5 µM
[3] = test system: 4G (DNA, G4) AGGGTTAGGGTTAGGGTTAGGGTTACCTAGGCATCCTCCAGTTCCTGGAGTCAGTG; test: fluorescence Job's plot; details: 100 mM KCl; 1×PBS pH 7.4, 37 °C; total concentration 5 µM
[4] = test system: RG4 (RNA, G4) AAGGAAGGGGAAGUCAGGUGGGGCCUGGGGAACCAGGAAGCGGGGAACAGG; test: fluorescence Job's plot; details: 100 mM KCl; 1×PBS pH 7.4, 37 °C; total concentration 5 µM
[5] = test system: 3G template annealed to primer P31 (DNA, G4) TTAGGGTTAGGGTTAGGGTTACCTAGGCATCCTCCAGTTCCTGGAGTCAGTG/CACTGACTCCAGGAACTGGAGGATGCCTAGG; test: Taq polymerase stop assay; details: 100 mM KCl, Mg2+; Tris-HCl pH 8.0; 0 to 100 µM ligand; extension at 40 °C
[6] = test system: 4G template annealed to primer P31 (DNA, G4) AGGGTTAGGGTTAGGGTTAGGGTTACCTAGGCATCCTCCAGTTCCTGGAGTCAGTG/CACTGACTCCAGGAACTGGAGGATGCCTAGG; test: Taq polymerase stop assay; details: 100 mM KCl, Mg2+; Tris-HCl pH 8.0; 0 to 100 µM ligand; extension at 40 °C
[7] = test system: H50 template annealed to primer H50/c49 (DNA, G4) AGGGTTAGGGTTAGGGTTAGGGGCCACCGCAATTGCTATAGTGAGTCGT/ACGACTCACTATAGCAATTGCG; test: Taq polymerase stop assay; details: 100 mM KCl, Mg2+; Tris-HCl pH 8.0; extension at 40 °C
[8] = test system: c49 (C49) template annealed to primer H50/c49 (DNA, G4) TGAGGGTGGGGAGGGTGGGGAAGCCACCGCAATTGCTATAGTGAGTCGT/ACGACTCACTATAGCAATTGCG; test: Taq polymerase stop assay; details: 100 mM KCl, Mg2+; Tris-HCl pH 8.0; extension at 50 °C
[9] = test system: 3G (DNA, G4) TTAGGGTTAGGGTTAGGGTTACCTAGGCATCCTCCAGTTCCTGGAGTCAGTG; test: fluorescent dye displacement; details: 100 mM KCl; 10 mM Tris-HCl pH 7.2; B6,5 1 µM displaced; 0.5 µM nucleic acid
[10] = test system: 4G (DNA, G4) AGGGTTAGGGTTAGGGTTAGGGTTACCTAGGCATCCTCCAGTTCCTGGAGTCAGTG; test: fluorescent dye displacement; details: 100 mM KCl; 10 mM Tris-HCl pH 7.2; B6,5 1 µM displaced; 0.5 µM nucleic acid
[11] = test system: RG4 (RNA, G4) AAGGAAGGGGAAGUCAGGUGGGGCCUGGGGAACCAGGAAGCGGGGAACAGG; test: fluorescent dye displacement; details: 100 mM KCl; 10 mM Tris-HCl pH 7.2; B6,5 1 µM displaced; 0.5 µM nucleic acid; 1 equivalent of ligand

Compound	binding [1]	binding [9]	binding [10]	% displacement of B6,5 [11] [%]	other results
CN1C(=Cc2cc[n+](C)c3ccccc23)Sc2ccccc21	yes				binding [2]: yes
C1=C2Sc3ccccc3N2CCCCCCN2C(=C/C=C/C=C/c3sc4ccccc4[n+]3CCCCCC[n+]3c(sc4ccccc43)/C=C/C=C/1)Sc1ccccc12	yes				binding [3]: yes; binding [4]: yes; binding [5]: yes; binding [6]: yes; binding [7]: yes; binding [8]: yes
C[n+]1ccc(-c2c3nc(c(-c4cc[n+](C)cc4)c4ccc([nH]4)c(-c4cc[n+](C)cc4)c4nc(c(-c5cc[n+](C)cc5)c5ccc2[nH]5)C=C4)C=C3)cc1		yes	yes	> 60	
CN1CCC[C@H]1CCNC(=O)c1cn2c3c(c(N4CCC(c5cnccn5)C4)c(F)cc3c1=O)Oc1cc3ccccc3cc1-2 (some centres unmarked)		yes	yes	> 60	

Further lines, with some results ahead:

binding [1]	binding [9]	binding [10]	% displacement of B6,5 [11] [%]	Compound	other results
	weak	yes	> 60	O=C(c1cc(Cc2n[nH]c(=O)c3ccccc23)ccc1F)N1CCN(C(=O)C2CC2)CC1	
	weak	yes		O=C(/C=C/C=C/c1ccc2c(c1)OCO2)N1CCCCC1	
